The nature of data set [1]: Forced swim test (FST), a rodent model of depression. In kind it is in vivo. As to conditions: rats, IP; for effect in the forced swim test: citicoline 50-500 mg/kg, molar equivalent cytidine 23.8-238 mg/kg, choline 13.7-136.6 mg/kg. The text has this: The effects of citicoline were examined in the forced swim test (FST), a rodent model of depression.
The conditions of data set [2]: in vivo; cited from earlier work.
The conditions of data set [3]: in vivo; cited from earlier work. The source holds these as a separate data set.
A short description of data set [4]: Continuous performance task (CPT), a measure of attention, in children with ADHD. In kind it is in vivo, human. As to conditions: ADHD boys (n=11), one week. The procedure:
(§1) A new fMRI procedure (T2 relaxometry or “T2-RT”) was developed to indirectly assess blood volume in the striatum (caudate and putamen) of boys 6-12 years of age under steady-state conditions. Six healthy control boys (10.2±1.5 yr) and eleven boys diagnosed with ADHD (9.3±1.6 yr) served as subjects in the study to examine fMRI differences between unmedicated healthy controls and ADHD children on either placebo or the highest dose of methylphenidate. […] Activity and attention were evaluated in unmedicated healthy controls using the same procedure as children with ADHD, and fMRI followed within the same time frame.
(§2) Highly accurate laboratory-based measures of activity and attention were obtained by having the children perform a computerized vigilance test while an infrared motion analysis system captured and recorded movements (see Methods). […]
(§3) Assessment of Activity and Attention. […] In brief, children sat in front of a computer and were evaluated using a simple GO/NO-GO CPT in which the subject responds to visual presentation of a target and withholds response to a non-target stimuli that appear in the center of the screen at a fixed 2 second […] interval (Greenberg et al., Psychopharmacol. Bull. 23: 279-282,1987). […]

A short description of data set [5]: Infrared motion analysis of activity during CPT in children with ADHD. Conditions: ADHD boys (n=11) vs placebo; P<0.05. In kind it is in vivo, human. The procedure: as §1, §2, §3
The test system of data set [6] is regional blood volume in putamen, caudate and thalamus. The data set is described as follows: T2 relaxometry (T2-RT) fMRI in children with ADHD. In kind it is in vivo, human. Conditions: ADHD boys, vs placebo; P>0.7.
Description: A new fMRI procedure (T2 relaxometry or “T2-RT”) was developed to indirectly assess blood volume in the striatum (caudate and putamen) of boys 6-12 years of age under steady-state conditions. […] Children with ADHD were included if they met criteria for ADHD on structured diagnostic interview, and had at least 6 of 9 symptoms of inattention or hyperactivity-impulsivity. Children with ADHD took part in a triple blind (parent, child, rater), randomized, placebo-controlled study of effects of methylphenidate (0, 0.5, 0.8, 1.5 mg/kg in divided dose) on activity, attention, and fMRI. Children with ADHD were treated continuously for one week with placebo or a specific dose of methylphenidate and at the end of the week were tested for drug efficacy using objective measures of attention and activity and fMRI (See Methods) within 1-3 hours of their afternoon dose. The time between dose and testing was held constant for each subject throughout the four treatment conditions. Activity and attention were evaluated in unmedicated healthy controls using the same procedure as children with ADHD, and fMRI followed within the same time frame.
T2 relaxometry, a novel FMRI procedure, was used to derive steady state blood flow measures and to test for enduring medication effects. […]
Data set [7] can be described thus: 17-item Hamilton Depression Rating Scale (HDRS) in depressed subjects. In kind it is in vivo, human. As to conditions: eight weeks, CDP-choline 6/12, fluoxetine 17/41. The procedure:
In a second study, twelve depressed subjects (mean age 40) received 500 mg of an oral formulation of CDP-choline twice daily for eight weeks.

For data set [8], the system named is brain phosphodiesters. The data set is described as follows: Phosphorus-31 MR spectroscopy of brain lipid metabolite resonances in healthy subjects. In kind it is in vivo, human. Conditions: healthy subjects (mean age 70), 500 mg oral daily, 6 to 12 weeks; p=0.008. The protocol:
To assess whether chronic CDP-choline administration leads to detectable changes in lipid metabolite resonances in phosphorus-31 MR spectra, eighteen healthy subjects (mean age: 70) were administered 500 mg of an oral formulation of CDP-choline daily for a six week period. From weeks 6 to 12, half of the subjects continued to receive CDP-choline and half received placebo in a double-blind fashion. […] CDP-choline administration, therefore, improves measures of verbal fluency and spatial memory in healthy adults and results in increased brain phospholipid synthesis in older adults, particularly during chronic administration.

For data set [9] the following is noted: cited from earlier work.
For data set [10] the following is noted: cited from earlier work. This is another data set of the same source.

For the compound `Nc1ccn([C@@H]2O[C@H](CO)[C@@H](O)[C@H]2O)c(=O)n1` [cytidine], the “effect in the forced swim test” value in [1] is “significant antidepressant effects”.

For the compound `CC(=O)OC[C@H]1O[C@@H](n2ccc(=O)[nH]c2=O)[C@H](OC(C)=O)[C@@H]1OC(C)=O` [triacetyl uridine], the tolerability in mammals result in [2] is listed as “well tolerated”.

For the compound `O=c1ccn([C@@H]2O[C@H](CO)[C@@H](O)[C@H]2O)c(=O)[nH]1` [uridine], in [3], the tolerability in humans entry is on record as “well tolerated”. Moreover, the tolerability in mammals result in data set [2] is reported as “well tolerated”.

Consider `COC(=O)C(c1ccccc1)C1CCCCN1` (centres unmarked) [methylphenidate], for which, in [4] (highest dose vs placebo, P<0.05), the CPT performance accuracy entry is “enhancing performance accuracy”. The “response variability (S.D.) of CPT response latency” value in [4] (reduced from 242 on placebo, P<0.005) was determined as 149 ms. Further, in data set [5], the “complexity of the movement pattern” value is given as “increasing the complexity of the movement pattern”. Also, in data set [6], the T2-RT in thalamus entry is “not affected”.

In the case of `CNCCC(Oc1ccc(C(F)(F)F)cc1)c1ccccc1` (centres unmarked) [fluoxetine], the “complete responses (share of subjects)” value in data set [7] is on record as 41%.

Consider `C[N+](C)(C)CCOP(=O)(O)OP(=O)([O-])OC[C@H]1O[C@@H](n2ccc(N)nc2=O)[C@H](O)[C@@H]1O` [CDP-choline, cytidine 5′-diphosphocholine], for which the brain phosphodiesters result in data set [8] is recorded as “significant increase”. In data set [7], the “complete responses (share of subjects)” value is reported as 50%. For the same compound, in data set [1] (high doses), the “effect in the forced swim test at high doses” value is reported as “small pro-depressant effects”. In addition, in data set [1], the “effect in the forced swim test” value was “did not have antidepressant effects”. Further, the “conversion into the two major circulating metabolites, choline and cytidine” value in data set [9] (orally or intravenously) is recorded as “rapidly converted”. Moreover, in [9] (share of dose), the excretion via lung is 12.9% and the excretion via urine was 2.4%. For the same compound, the “reported cases of overdoses” value in data set [10] (in vivo) is “no reported cases of overdoses”. Moreover, the “symptoms on ingestion of large amounts” value in data set [10] (preclinical studies, salivation, lacrimation, urination, defecation, vomiting) is recorded as “common cholinergic symptoms”. Also, in data set [2], the tolerability in mammals entry is “well tolerated”.

`CN(CC(=O)O)C(=N)N` [Creatine, creatine]: the tolerability in humans entry in data set [3] is “well tolerated at relatively high doses”.

The values are drawn from patent US8030294B2, “Compounds for the treatment of psychiatric or substance abuse disorders” (The McLean Hospital Corporation, priority 2000, dated 2011).
